Assay results from ChEMBL document CHEMBL1201862, “PubChem BioAssay data set” (2004).
Active and inactive are the calls of the source.

Legend:
[1] = biological target: T1, High affinity choline transporter 1 (Homo sapiens, UniProt Q9GZV3); assay: human choline transporter blockers, potency – cell-based, 5-point CRC, membrane potential dye, dose response (AID 504840); assay type: functional
T1 sequence (Q9GZV3 whole entry): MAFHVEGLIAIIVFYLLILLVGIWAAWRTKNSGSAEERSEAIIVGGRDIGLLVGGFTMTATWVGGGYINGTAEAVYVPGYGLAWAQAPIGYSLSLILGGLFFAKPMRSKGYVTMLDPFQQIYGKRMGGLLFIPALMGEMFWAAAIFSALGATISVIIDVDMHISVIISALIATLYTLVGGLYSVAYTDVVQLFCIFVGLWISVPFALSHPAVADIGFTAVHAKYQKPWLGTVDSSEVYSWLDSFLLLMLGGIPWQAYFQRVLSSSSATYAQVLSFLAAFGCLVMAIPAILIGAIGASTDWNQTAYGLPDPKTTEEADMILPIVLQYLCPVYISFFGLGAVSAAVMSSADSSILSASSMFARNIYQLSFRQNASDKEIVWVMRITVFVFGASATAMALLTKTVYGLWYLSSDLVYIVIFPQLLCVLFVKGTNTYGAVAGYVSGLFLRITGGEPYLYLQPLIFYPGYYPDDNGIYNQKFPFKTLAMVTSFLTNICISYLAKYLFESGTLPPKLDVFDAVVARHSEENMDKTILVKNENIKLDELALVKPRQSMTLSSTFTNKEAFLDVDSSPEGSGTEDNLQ

[2] = biological target: T1, High affinity choline transporter 1; assay: human choline transporter blockers, potency – cell-based, 10-point CRC, membrane potential dye, dose response (AID 588401); assay type: functional;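 also: membrane potential dye fluorescence of choline-evoked depolarization via CHT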
[3] = biological target: Protein disulfide-isomerase (Homo sapiens, UniProt P07237); assay: inhibition of PDI-driven insulin aggregation – biochemical, turbidity, absorbance, cherry-picked samples, dose response (AID 602350); assay type: functional
Chain of Protein disulfide-isomerase (P07237 whole entry): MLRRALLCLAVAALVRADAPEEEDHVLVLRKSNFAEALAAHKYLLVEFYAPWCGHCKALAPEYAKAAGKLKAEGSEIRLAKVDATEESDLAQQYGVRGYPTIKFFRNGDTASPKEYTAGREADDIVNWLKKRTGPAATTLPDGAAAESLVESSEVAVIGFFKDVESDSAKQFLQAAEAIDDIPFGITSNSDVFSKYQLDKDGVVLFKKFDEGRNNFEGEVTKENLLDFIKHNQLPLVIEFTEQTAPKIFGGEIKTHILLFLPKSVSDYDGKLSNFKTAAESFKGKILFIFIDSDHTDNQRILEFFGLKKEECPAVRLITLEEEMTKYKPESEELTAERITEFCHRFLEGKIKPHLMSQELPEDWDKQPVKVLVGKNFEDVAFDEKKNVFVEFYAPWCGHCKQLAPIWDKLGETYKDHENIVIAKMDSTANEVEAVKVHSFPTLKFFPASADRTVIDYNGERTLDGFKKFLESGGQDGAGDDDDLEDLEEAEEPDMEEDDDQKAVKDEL

[4] = non-specific 3'UTR reporter inhibition in Clone20-Shn3RL – cell-based, Renilla luciferase, cherry-picked, counter-screen for Shn3 inhibitor project, dose response (AID 624133); assay type: functional
[5] = loss of viability in HepG2 cells – cell-based, CellTiter-Glo, cherry-picked, cytotoxicity control for Shn3 inhibitor project, dose response (AID 624134); assay type: functional
[6] = test system: Vero; assay: cells; assay type: functional, cell-based; details: Chlorocebus sabaeus
[7] = reduction of Shn3 3'UTR-driven luciferase in osteoblasts – cell-based, Clone20 osteoblasts, firefly luciferase, cherry-picked, dose response (AID 624132); assay type: functional;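 also: firefly luciferase luminescence from reporter carrying the Shn3 3'UTR in osteoblasts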
[8] = biological target: Heat shock protein HSP 90-alpha (Homo sapiens, UniProt P07900); assay type: functional, organism-based
[9] = test system: Escherichia coli; assay: microbe, parasite or virus in culture
[10] = test system: Escherichia coli; assay: microbe, parasite or virus in culture; remark: listed apart in the source
[11] = biological target: Aurora kinase B (Homo sapiens, UniProt Q96GD4); assay type: functional
Chain of Aurora kinase B (Q96GD4 whole entry): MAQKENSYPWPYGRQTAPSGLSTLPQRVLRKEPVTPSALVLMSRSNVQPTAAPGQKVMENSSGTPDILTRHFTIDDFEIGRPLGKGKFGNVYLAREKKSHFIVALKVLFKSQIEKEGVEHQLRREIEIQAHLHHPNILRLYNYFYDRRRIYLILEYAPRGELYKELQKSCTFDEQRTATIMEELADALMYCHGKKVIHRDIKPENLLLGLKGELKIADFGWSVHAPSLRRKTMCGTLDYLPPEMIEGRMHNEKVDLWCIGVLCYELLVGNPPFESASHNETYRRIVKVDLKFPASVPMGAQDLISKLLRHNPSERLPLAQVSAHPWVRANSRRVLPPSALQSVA

[12] = biological target: T2, Aurora kinase A (Homo sapiens, UniProt O14965); assay type: functional;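 also: value from the Navigating the Kinome kinase panel profiling, panel entry STK6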
T2 sequence (O14965 whole entry): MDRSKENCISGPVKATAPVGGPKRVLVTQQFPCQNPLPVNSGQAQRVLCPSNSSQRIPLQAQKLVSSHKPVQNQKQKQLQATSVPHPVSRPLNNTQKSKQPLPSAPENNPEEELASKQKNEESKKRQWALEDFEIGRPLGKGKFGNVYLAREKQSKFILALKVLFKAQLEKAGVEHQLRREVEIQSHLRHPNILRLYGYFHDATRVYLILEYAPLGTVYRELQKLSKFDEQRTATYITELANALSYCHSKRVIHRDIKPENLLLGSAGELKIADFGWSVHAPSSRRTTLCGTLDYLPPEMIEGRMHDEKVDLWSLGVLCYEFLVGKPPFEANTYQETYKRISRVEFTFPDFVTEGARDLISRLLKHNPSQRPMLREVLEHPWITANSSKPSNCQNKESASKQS

[13] = biological target: Cell division cycle 7-related protein kinase (Homo sapiens, UniProt O00311); assay type: functional;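 also: value obtained from a kinome-wide kinase panel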
Chain of Cell division cycle 7-related protein kinase (O00311 whole entry): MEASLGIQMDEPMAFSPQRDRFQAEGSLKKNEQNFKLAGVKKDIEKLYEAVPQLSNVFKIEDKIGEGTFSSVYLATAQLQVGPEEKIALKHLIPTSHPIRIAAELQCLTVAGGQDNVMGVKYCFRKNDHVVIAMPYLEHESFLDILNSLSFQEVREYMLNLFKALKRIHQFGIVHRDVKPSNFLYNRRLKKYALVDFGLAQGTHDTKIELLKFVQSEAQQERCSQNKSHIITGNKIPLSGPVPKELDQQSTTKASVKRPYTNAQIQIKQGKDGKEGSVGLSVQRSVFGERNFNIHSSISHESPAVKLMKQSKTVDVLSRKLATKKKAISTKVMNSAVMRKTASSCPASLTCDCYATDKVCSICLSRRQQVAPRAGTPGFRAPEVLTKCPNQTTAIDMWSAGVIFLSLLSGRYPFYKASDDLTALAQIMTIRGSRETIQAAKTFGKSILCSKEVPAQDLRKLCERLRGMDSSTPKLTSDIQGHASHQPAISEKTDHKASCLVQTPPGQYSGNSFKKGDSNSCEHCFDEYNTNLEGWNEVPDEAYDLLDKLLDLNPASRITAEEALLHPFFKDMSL

[14] = biological target: ALK tyrosine kinase receptor (Homo sapiens, UniProt Q9UM73); assay type: functional;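 also: ALK tested as one member of a kinase panel screen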
Chain of ALK tyrosine kinase receptor (Q9UM73 whole entry): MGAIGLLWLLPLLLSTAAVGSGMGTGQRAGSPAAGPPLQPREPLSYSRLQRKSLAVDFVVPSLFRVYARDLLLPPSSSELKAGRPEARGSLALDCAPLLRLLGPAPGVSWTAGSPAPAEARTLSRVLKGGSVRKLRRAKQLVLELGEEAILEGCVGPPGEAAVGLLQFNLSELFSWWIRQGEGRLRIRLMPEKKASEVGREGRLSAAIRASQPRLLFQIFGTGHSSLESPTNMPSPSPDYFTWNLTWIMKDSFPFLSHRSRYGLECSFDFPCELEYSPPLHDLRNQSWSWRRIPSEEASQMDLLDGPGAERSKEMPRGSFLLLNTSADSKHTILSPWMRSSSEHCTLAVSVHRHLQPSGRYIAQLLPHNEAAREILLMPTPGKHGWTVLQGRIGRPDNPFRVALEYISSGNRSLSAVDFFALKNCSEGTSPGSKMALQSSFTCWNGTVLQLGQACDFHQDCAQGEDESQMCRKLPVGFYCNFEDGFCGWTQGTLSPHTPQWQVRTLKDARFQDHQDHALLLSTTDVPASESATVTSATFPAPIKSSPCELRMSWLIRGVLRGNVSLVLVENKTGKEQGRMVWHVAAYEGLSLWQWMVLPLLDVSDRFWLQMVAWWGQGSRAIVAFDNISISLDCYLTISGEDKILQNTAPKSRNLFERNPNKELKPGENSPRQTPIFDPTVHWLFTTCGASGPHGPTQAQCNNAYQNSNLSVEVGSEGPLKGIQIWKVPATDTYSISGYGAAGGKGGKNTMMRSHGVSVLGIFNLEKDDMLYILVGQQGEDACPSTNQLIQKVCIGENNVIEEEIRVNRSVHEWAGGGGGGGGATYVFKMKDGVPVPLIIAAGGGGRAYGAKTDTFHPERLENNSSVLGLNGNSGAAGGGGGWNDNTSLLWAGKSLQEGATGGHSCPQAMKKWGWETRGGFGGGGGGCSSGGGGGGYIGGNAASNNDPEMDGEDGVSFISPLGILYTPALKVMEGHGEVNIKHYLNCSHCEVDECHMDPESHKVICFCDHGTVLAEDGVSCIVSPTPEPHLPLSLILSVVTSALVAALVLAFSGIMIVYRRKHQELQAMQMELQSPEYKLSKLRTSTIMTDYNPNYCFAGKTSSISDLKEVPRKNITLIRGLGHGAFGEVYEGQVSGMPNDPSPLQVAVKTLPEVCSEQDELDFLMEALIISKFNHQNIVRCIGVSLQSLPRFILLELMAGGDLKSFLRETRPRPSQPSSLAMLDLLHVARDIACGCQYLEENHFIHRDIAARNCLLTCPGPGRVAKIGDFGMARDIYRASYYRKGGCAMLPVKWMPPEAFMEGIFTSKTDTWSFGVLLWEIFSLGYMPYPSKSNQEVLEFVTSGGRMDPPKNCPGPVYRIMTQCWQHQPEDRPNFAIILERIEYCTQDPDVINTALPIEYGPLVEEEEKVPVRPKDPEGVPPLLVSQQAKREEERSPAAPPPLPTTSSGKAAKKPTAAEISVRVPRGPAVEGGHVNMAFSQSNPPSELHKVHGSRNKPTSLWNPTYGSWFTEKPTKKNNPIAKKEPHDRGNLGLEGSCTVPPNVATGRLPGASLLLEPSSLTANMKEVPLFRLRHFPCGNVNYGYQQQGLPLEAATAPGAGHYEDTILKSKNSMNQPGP

[15] = biological target: Wee1-like protein kinase (Homo sapiens, UniProt P30291); assay: Navigating the Kinome. Panel member name: WEE1; assay type: functional
Chain of Wee1-like protein kinase (P30291 whole entry): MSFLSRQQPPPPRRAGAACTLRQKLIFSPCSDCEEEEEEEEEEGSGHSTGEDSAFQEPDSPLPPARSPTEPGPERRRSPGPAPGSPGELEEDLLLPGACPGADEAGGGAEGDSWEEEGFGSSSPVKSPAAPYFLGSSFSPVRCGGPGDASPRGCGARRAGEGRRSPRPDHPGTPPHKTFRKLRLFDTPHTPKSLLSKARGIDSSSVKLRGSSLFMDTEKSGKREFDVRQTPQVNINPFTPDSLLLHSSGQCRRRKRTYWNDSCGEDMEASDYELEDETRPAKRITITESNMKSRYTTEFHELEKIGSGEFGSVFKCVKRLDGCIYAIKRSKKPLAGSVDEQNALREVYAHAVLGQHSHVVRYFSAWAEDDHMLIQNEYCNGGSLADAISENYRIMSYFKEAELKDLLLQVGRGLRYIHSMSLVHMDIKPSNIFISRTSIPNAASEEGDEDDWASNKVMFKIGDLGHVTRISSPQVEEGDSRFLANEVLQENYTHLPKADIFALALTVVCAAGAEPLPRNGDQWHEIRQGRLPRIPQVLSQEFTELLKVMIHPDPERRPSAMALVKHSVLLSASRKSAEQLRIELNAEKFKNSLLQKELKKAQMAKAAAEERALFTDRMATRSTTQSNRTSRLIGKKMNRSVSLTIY

[16] = biological target: Melanin-concentrating hormone receptor 1 (Homo sapiens, UniProt Q99705); assay: Late-stage fluorescence-based counterscreen for antagonists of the G-protein coupled receptor 7 (GPR7): cell-based dose response assay to identify antagonists of the melanin-concentrating hormone receptor 1 (MCHR1) Set 6.; assay type: functional
Chain of Melanin-concentrating hormone receptor 1 (Q99705 whole entry): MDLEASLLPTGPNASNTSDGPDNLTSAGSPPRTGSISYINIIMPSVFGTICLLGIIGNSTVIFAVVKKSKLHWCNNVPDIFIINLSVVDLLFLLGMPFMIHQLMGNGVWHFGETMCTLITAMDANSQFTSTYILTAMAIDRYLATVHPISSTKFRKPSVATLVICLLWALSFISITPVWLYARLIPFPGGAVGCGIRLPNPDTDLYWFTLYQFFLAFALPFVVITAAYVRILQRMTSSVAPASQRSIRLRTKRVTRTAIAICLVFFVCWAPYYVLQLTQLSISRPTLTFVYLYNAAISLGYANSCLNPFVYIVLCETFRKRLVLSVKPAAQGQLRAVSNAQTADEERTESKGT

[17] = biological target: Neuropeptides B/W receptor type 1 (Homo sapiens, UniProt P48145); assay: human NPBW1 receptor blockade, IC50 – cell-based, fluorescence, dose response, set 6, late-stage follow-up (AID 588583); assay type: functional
Chain of Neuropeptides B/W receptor type 1 (P48145 whole entry): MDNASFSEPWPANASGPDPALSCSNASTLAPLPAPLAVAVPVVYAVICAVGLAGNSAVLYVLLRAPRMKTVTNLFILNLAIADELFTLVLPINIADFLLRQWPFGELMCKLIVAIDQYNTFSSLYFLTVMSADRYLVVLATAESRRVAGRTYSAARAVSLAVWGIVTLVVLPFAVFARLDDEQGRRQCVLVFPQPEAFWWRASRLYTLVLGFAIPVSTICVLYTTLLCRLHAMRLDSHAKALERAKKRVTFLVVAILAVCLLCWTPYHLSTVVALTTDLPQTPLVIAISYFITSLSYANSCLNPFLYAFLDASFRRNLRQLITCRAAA

CC(CN1CCN(C)CC1)OC(=O)c1ccccc1Cl (configuration not stated)
active: IC50 [1] 10000 nM | IC50 [2] 4220 nM

COc1cc2cc(C(=O)N3CC(COS(C)(=O)=O)c4ccc(O)cc43)[nH]c2c(OC)c1OC (configuration not stated)
active: AC50 [3] 18000 nM | AC50 [4] < 260 nM | AC50 [5] 352 nM | IC50 [6] 8570 nM | AC50 [7] < 260 nM | AC50 [8] 708 nM | AC50 [9] 4260 nM | AC50 [10] 22800 nM

COc1ccc(Nc2nccc(Nc3ccccc3C(=O)O)n2)cc1O
active: Ki [11] 5.01 nM | Ki [12] 20 nM | Ki [13] 0.126 nM

CCN1CCN(c2ccc(Nc3ncc(C(F)(F)F)c(Nc4ccc5[nH]ncc5c4)n3)cc2)CC1
active: Ki [14] 15.8 nM | Ki [15] 7.94 nM

CCOc1ccccc1Cn1ncc(Cl)c(Oc2ccc(OC)cc2)c1=O
active: IC50 [16] ~624 nM | IC50 [17] ~624 nM
